# According to ChEMBL document CHEMBL5365456, “Isolation and biological activity of natural chalcones based on antibacterial mechanism classification” (Bioorg Med Chem, 2023):
# Key:
# [1] = Inhibition of Micrococcus luteus IFO 3333 membrane NADH oxidase by absorbance based assay; assay type: cell membranes
# Staphylococcus aureus [2] = experiment: Antibacterial activity against Staphylococcus aureus IFO 3007 assessed bacterial growth inhibition by two-fold serial broth dilution method; assay type: functional
# [3] = Inhibition of Micrococcus luteus IFO 3333 membrane NADH-cytochrome c reductase by absorbance based assay; assay type: cell membranes
# [4] = Inhibition of Pseudomonas aeruginosa JCM 2776 membrane NADH oxidase by absorbance based assay; assay type: cell membranes
# [5] = Inhibition of Staphylococcus aureus IFO 3007 membrane NADH oxidase by absorbance based assay; assay type: cell membranes
# Pseudomonas aeruginosa = experiment: Antibacterial activity against Pseudomonas aeruginosa JCM 2776 assessed bacterial growth inhibition by two-fold serial broth dilution method; assay type: functional
# Escherichia coli [6] = experiment: Antibacterial activity against Escherichia coli HUT 215 assessed bacterial growth inhibition by two-fold serial broth dilution method; assay type: functional
# Micrococcus luteus = experiment: Antibacterial activity against Micrococcus luteus IFO 3333 assessed bacterial growth inhibition by two-fold serial broth dilution method; assay type: functional
# [7] = Inhibition of Escherichia coli HUT 215 membrane NADH oxidase by absorbance based assay; assay type: cell membranes
# Bacillus subtilis = experiment: Antibacterial activity against Bacillus subtilis IFO 3060 assessed bacterial growth inhibition by two-fold serial broth dilution method; assay type: functional
# Staphylococcus aureus [8] = experiment: Antibacterial activity against Staphylococcus aureus MSSA1 assessed bacterial growth inhibition by CLSI-based broth microdilution method; assay type: functional
# Staphylococcus aureus [9] = experiment: Antibacterial activity against Staphylococcus aureus ATCC 10832 assessed as bacterial growth inhibition incubated for 24 hrs by CLSI-based broth microdilution assay; assay type: functional
# [10] = Haemolytic activity in rabbit Erythrocyte infected with Staphylococcus aureus ATCC 29213 assessed as inhibition of alpha-toxin production at 0.125 ug/ml incubated for 20 mins; assay type: toxicity, cell-based, Oryctolagus cuniculus; settings: at 0.125 µg/mL
# Staphylococcus aureus [11] = experiment: Antibacterial activity against Staphylococcus aureus ATCC 29213 assessed as bacterial growth inhibition incubated for 24 hrs by CLSI-based broth microdilution assay; assay type: functional
# [12] = Haemolytic activity in rabbit Erythrocyte infected with Staphylococcus aureus ATCC 10832 assessed as inhibition of alpha-toxin production at 0.125 ug/ml incubated for 20 mins; assay type: toxicity, cell-based, Oryctolagus cuniculus; settings: at 0.125 µg/mL
# Escherichia coli [13] = experiment: Antibacterial activity against Escherichia coli ANS1 assessed as bacterial growth inhibition incubated for 20 hrs by broth microdilution method; assay type: functional
# [14] = Inhibition of FAS2 in Mycobacterium smegmatis mc2 155 transfected with pVV16 vector expressing Rv0636 by BCA assay; set-up: species or system Mycolicibacterium smegmatis
# [15] = Inhibition of His-tagged Escherichia coli ANS1 Fab1 using trans-2-octanoyl-N-acetylcysteamine as substrate by spectrometric analysis
# [16] = Inhibition of His-tagged Escherichia coli ANS1 FabG using acetoacetyl-CoA as substrate by spectrometric analysis
# [17] = Inhibition of FAS2 in Mycobacterium smegmatis mc2 155 transfected with pVV16 vector by BCA assay; set-up: species or system Mycolicibacterium smegmatis
# Candida albicans [18] = experiment: Inhibition of Candida albicans ATCC 28366 hyphal transition at 100 ug/ml incubated upto 4 hrs relative to control; assay type: functional
# Staphylococcus aureus [19] = experiment: Antibacterial activity against methicillin-Sensitive Staphylococcus aureus ATCC 29213 assessed as bacterial growth inhibition by CLSI-based broth microdilution method; assay type: functional
# Candida albicans [20] = experiment: Antibiofilm activity against Candida albicans LAM-1 at 2 ug/ml incubated for 24 hrs by crystal violet staining based assay relative to control; assay type: functional
# Staphylococcus aureus [21] = experiment: Antibacterial activity against Staphylococcus aureus ATCC 29213 assessed bacterial growth inhibition by CLSI-based broth microdilution method; assay type: functional
# Candida albicans [22] = experiment: Antibiofilm activity against Candida albicans ATCC 28366 at 0.2 ug/ml incubated for 24 hrs by crystal violet staining based assay relative to control; assay type: functional
# Staphylococcus aureus [23] = experiment: Antibiofilm activity against Staphylococcus aureus ATCC 29213 at 128 ug/ml relative to control; assay type: functional
# [24] = Haemolytic activity in rabbit Erythrocyte infected with methicillin-Resistant Staphylococcus aureus 2985 assessed as inhibition of alpha-toxin production at 2 ug/ml incubated for 15 mins; assay type: toxicity, cell-based, Oryctolagus cuniculus; settings: 0.25 h, at 2 µg/mL
# Streptococcus suis [25] = experiment: Antibiofilm activity against Streptococcus suis 05ZYH33 assessed as inhibition of biofilm formation at 3 ug/ml incubated for 18 to 24 hrs by crystal violet staining based assay relative to control; assay type: functional; settings: time 18-24 hrs
# Streptococcus suis [26] = experiment: Antibiofilm activity against Streptococcus suis 05ZYH33 assessed as inhibition of biofilm formation at 4 ug/ml incubated for 18 to 24 hrs by crystal violet staining based assay relative to control; assay type: functional; settings: time 18-24 hrs
# Enterococcus faecalis [27] = experiment: Antibacterial activity against Enterococcus faecalis 16C106 assessed as bacterial growth inhibition by CLSI based broth microdilution assay; assay type: functional
# Staphylococcus aureus [28] = experiment: Antibacterial activity against methicillin-Resistant Staphylococcus aureus 2985 assessed as bacterial growth inhibition by CLSI-based broth microdilution method; assay type: functional
# [29] = Hemolytic activity in human RBC infected with Streptococcus suis 05ZYH33 at 2 ug/ml measured after 1 hr by microplate reader method; assay type: toxicity, cell-based; settings: erythrocyte, at 2 µg/mL
# Candida albicans [30] = experiment: Antifungal activity against Candida albicans ATCC 28366 assessed as fungal growth inhibition incubated for 24 hrs; assay type: functional
# Staphylococcus aureus [31] = experiment: Antibiofilm activity against Staphylococcus aureus ATCC 29213 at 16 ug/ml relative to control; assay type: functional
# Streptococcus suis [32] = experiment: Antibacterial activity against Streptococcus suis 05ZYH33 assessed as bacterial growth inhibition incubated for 24 hrs; assay type: functional
# Rhizomucor pusillus = experiment: Antibacterial activity against Rhizomucor pusillus HUT 1185 assessed bacterial growth inhibition by two-fold serial broth dilution method; assay type: functional
# Enterococcus faecalis [33] = experiment: Antibacterial activity against Enterococcus faecalis 16C51 assessed as bacterial growth inhibition by CLSI based broth microdilution assay; assay type: functional
# Enterococcus faecalis [34] = experiment: Antibiofilm activity against Enterococcus faecalis 16C106 at 4.23 ug/ml incubated for 24 hrs by crystal violet staining based assay relative to control; assay type: functional
# Enterococcus faecalis [35] = experiment: Antibiofilm activity against Enterococcus faecalis 16C51 at 4.23 ug/ml incubated for 24 hrs by crystal violet staining based assay relative to control; assay type: functional
# Candida albicans [36] = experiment: Antifungal activity against Candida albicans LAM-1 assessed as fungal growth inhibition incubated for 24 hrs; assay type: functional
# Staphylococcus aureus [37] = experiment: Antibacterial activity against Staphylococcus aureus ATCC 29213 assessed as bacterial growth inhibition incubated for 24 hrs by CLSI-based assay; assay type: functional
# [38] = Haemolytic activity in rabbit Erythrocyte infected with Staphylococcus aureus ATCC 29213 assessed as inhibition of alpha-toxin production at 2 ug/ml incubated for 15 mins; assay type: toxicity, cell-based, Oryctolagus cuniculus; settings: 0.25 h, at 2 µg/mL
# Enterococcus faecalis [39] = experiment: Antibiofilm activity against Enterococcus faecalis 16C51 at 2.115 ug/ml incubated for 24 hrs by crystal violet staining based assay relative to control; assay type: functional
# Enterococcus faecalis [40] = experiment: Antibiofilm activity against Enterococcus faecalis 16C106 at 2.115 ug/ml incubated for 24 hrs by crystal violet staining based assay relative to control; assay type: functional
# Candida albicans [41] = experiment: Inhibition of Candida albicans LAM-1 hyphal transition at 100 ug/ml incubated upto 4 hrs relative to control; assay type: functional
# Candida albicans [42] = experiment: Antibiofilm activity against Candida albicans ATCC 28366 at 2 ug/ml incubated for 24 hrs by crystal violet staining based assay relative to control; assay type: functional
# [43] = Hemolytic activity in human RBC infected with Streptococcus suis 05ZYH33 at 1.5 ug/ml measured after 1 hr by microplate reader method; assay type: toxicity, cell-based; settings: erythrocyte, at 1.5 µg/mL
# Candida albicans [44] = experiment: Antibiofilm activity against Candida albicans LAM-1 at 0.2 ug/ml incubated for 24 hrs by crystal violet staining based assay; assay type: functional
structure (smiles),measurement,setting,value
COc1c(/C=C/C(=O)c2ccc(O)cc2)ccc(O)c1CC=C(C)C,IC50,[1],3 µM
same,MIC,Staphylococcus aureus [2],6.25 µg/mL
same,IC50,[3],29.6 µM
same,IC50,[4],13.9 µM
same,IC50,[5],23.4 µM
same,MIC,Pseudomonas aeruginosa,> 100 µg/mL
same,MIC,Escherichia coli [6],> 100 µg/mL
same,MIC,Micrococcus luteus,6.25 µg/mL
same,IC50,[7],7.4 µM
same,MIC,Bacillus subtilis,12.5 µg/mL
COc1c(/C=C/C(=O)c2ccc(O)cc2)ccc(O)c1O,MIC,Staphylococcus aureus [2],100 µg/mL
same,MIC,Micrococcus luteus,50 µg/mL
same,MIC,Bacillus subtilis,10 µg/mL
CC1(C)C=Cc2c(ccc(C(=O)/C=C/c3ccc(O)cc3)c2O)O1,MIC,Staphylococcus aureus [8],4 µg/mL
C=C(C)[C@@H](C)c1cc(/C=C/C(=O)c2ccc(O)cc2)c(OC)cc1O,MIC,Staphylococcus aureus [9],2 µg/mL
same,inhibition (INH),[10],33%
same,MIC,Staphylococcus aureus [11],2 µg/mL
same,inhibition (INH),[12],58%
O=C(/C=C/c1ccc(O)c(O)c1)c1ccc(O)cc1O [BUTEIN],MIC,Escherichia coli [13],32 µM
same,IC50,[14],30 µg/mL
same,IC50,[15],30 µM
same,IC50,[16],10 µM
same,IC50,[17],22 µg/mL
C=CC(C)(C)c1cc(/C=C/C(=O)c2ccc(O)cc2)c(OC)cc1O [LICOAGROCHACONE A],inhibition at 100 µg/mL,Candida albicans [18],100%
same,MIC,Staphylococcus aureus [19],4 µg/mL
same,inhibition at 2 µg/mL,Candida albicans [20],76%
same,MIC,Staphylococcus aureus [21],4 µg/mL
same,inhibition at 0.2 µg/mL,Candida albicans [22],59%
same,inhibition at 128 µg/mL,Staphylococcus aureus [23],60%
same,inhibition (INH),[24],93%
same,IC50,[1],6.2 µM
same,inhibition at 3 µg/mL,Streptococcus suis [25],30%
same,inhibition at 4 µg/mL,Streptococcus suis [26],60%
same,MIC,Enterococcus faecalis [27],8.46 µg/mL
same,MIC,Staphylococcus aureus [2],1.56 µg/mL
same,MIC,Staphylococcus aureus [28],4 µg/mL
same,inhibition (INH),[29],81%
same,MIC,Candida albicans [30],6.25 µg/mL
same,inhibition at 16 µg/mL,Staphylococcus aureus [31],60%
same,IC50,[3],14.8 µM
same,IC50,[4],18.9 µM
same,MIC,Streptococcus suis [32],4 µg/mL
same,IC50,[5],8 µM
same,MIC,Rhizomucor pusillus,12.5 µg/mL
same,MIC,Pseudomonas aeruginosa,> 100 µg/mL
same,MIC,Enterococcus faecalis [33],8.46 µg/mL
same,inhibition at 4.23 µg/mL,Enterococcus faecalis [34],85%
same,inhibition at 4.23 µg/mL,Enterococcus faecalis [35],80%
same,MIC,Candida albicans [36],12.5 µg/mL
same,MIC,Staphylococcus aureus [37],2 µg/mL
same,inhibition (INH),[38],95%
same,inhibition at 2.115 µg/mL,Enterococcus faecalis [39],50%
same,inhibition at 2.115 µg/mL,Enterococcus faecalis [40],50%
same,MIC,Escherichia coli [6],> 100 µg/mL
same,MIC,Micrococcus luteus,1.56 µg/mL
same,inhibition at 100 µg/mL,Candida albicans [41],79%
same,inhibition at 2 µg/mL,Candida albicans [42],81%
same,IC50,[7],9.5 µM
same,inhibition (INH),[43],63%
same,inhibition at 0.2 µg/mL,Candida albicans [44],35%
same,MIC,Bacillus subtilis,3.13 µg/mL
COc1c(/C=C/C(=O)c2ccc(O)c(CC=C(C)C)c2)ccc(O)c1O [LICOCHALCONE D],MIC,Staphylococcus aureus [2],50 µg/mL
same,MIC,Micrococcus luteus,50 µg/mL
same,MIC,Bacillus subtilis,50 µg/mL
